# ChEMBL document CHEMBL1133057, “Synthesis and in vitro antibacterial activity of 3-[N-methyl-N-(3-methyl-1,3-thiazolium-2-yl)aminolmethyl cephalosporin derivatives” (2000)
# What was measured:
# Escherichia coli [1] = assay: Compound was tested in vitro for its minimum inhibitory concentration by serial 2-fold agar dilution Muller Hinton method against Escherichia coli 1507E; assay type: functional
# Streptococcus pyogenes [2] = assay: Compound was tested in vitro for its minimum inhibitory concentration by serial 2-fold agar dilution Muller Hinton method against Streptococcus pyogenes A 308; assay type: functional
# Pseudomonas aeruginosa [3] = assay: Compound was tested in vitro for its minimum inhibitory concentration by serial 2-fold agar dilution Muller Hinton method against Pseudomonas aeruginosa 1771 M; assay type: functional
# Klebsiella aerogenes = assay: Compound was tested in vitro for its minimum inhibitory concentration by serial 2-fold agar dilution Muller Hinton method against Klebsiella aerogenes 1522 E; assay type: functional
# Staphylococcus aureus [4] = assay: Compound was tested in vitro for its minimum inhibitory concentration by serial 2-fold agar dilution Muller Hinton method against Staphylococcus aureus 285; assay type: functional
# Enterobacter cloacae [5] = assay: Compound was tested in vitro for its minimum inhibitory concentration by serial 2-fold agar dilution Muller Hinton method against Enterobacter cloacae 1321; assay type: functional
# Salmonella typhimurium = assay: Compound was tested in vitro for its minimum inhibitory concentration by serial 2-fold agar dilution Muller Hinton method against Salmonella Typhimurium; assay type: functional, Salmonella enterica subsp. enterica serovar Typhimurium; settings: Salmonella enterica
# Enterobacter cloacae [6] = assay: Compound was tested in vitro for its minimum inhibitory concentration by serial 2-fold agar dilution Muller Hinton method against Enterobacter cloacae P99; assay type: functional
# Escherichia coli [7] = assay: Compound was tested in vitro for its minimum inhibitory concentration by serial 2-fold agar dilution Muller Hinton method against Escherichia coli O 55; assay type: functional
# Staphylococcus aureus [8] = assay: Compound was tested in vitro for its minimum inhibitory concentration by serial 2-fold agar dilution Muller Hinton method against Staphylococcus aureus 503; assay type: functional
# Streptococcus pyogenes [9] = assay: Compound was tested in vitro for its minimum inhibitory concentration by serial 2-fold agar dilution Muller Hinton method against Streptococcus pyogenes 8b; assay type: functional
# Pseudomonas aeruginosa [10] = assay: Compound was tested in vitro for its minimum inhibitory concentration by serial 2-fold agar dilution Muller Hinton method against Pseudomonas aeruginosa 9027; assay type: functional
# Klebsiella oxytoca = assay: Compound was tested in vitro for its minimum inhibitory concentration by serial 2-fold agar dilution Muller Hinton method against Klebsiella oxytoca 1082 E; assay type: functional
# Pseudomonas aeruginosa [11] = assay: Compound was tested in vitro for its minimum inhibitory concentration by serial 2-fold agar dilution Muller Hinton method against Pseudomonas aeruginosa 1771; assay type: functional
# Streptococcus pyogenes [12] = assay: Compound was tested in vitro for its minimum inhibitory concentration by serial 2-fold agar dilution Muller Hinton method against Streptococcus pyogenes A77; assay type: functional
# Pseudomonas aeruginosa [13] = assay: Compound was tested in vitro for its minimum inhibitory concentration by serial 2-fold agar dilution Muller Hinton method against Pseudomonas aeruginosa 1592 E; assay type: functional
# Staphylococcus aureus [14] = assay: Compound was tested in vitro for its minimum inhibitory concentration by serial 2-fold agar dilution Muller Hinton method against Staphylococcus aureus SG511; assay type: functional
# Escherichia coli [15] = assay: Compound was tested in vitro for its minimum inhibitory concentration by serial 2-fold agar dilution Muller Hinton method against Escherichia coli DC 0; assay type: functional
# Escherichia coli [16] = assay: Compound was tested in vitro for its minimum inhibitory concentration by serial 2-fold agar dilution Muller Hinton method against Escherichia coli TEM; assay type: functional
# Escherichia coli [17] = assay: Compound was tested in vitro for its minimum inhibitory concentration by serial 2-fold agar dilution Muller Hinton method against Escherichia coli DC 2; assay type: functional
SMILES,MIC (Escherichia coli [1]) [µg/mL],MIC (Streptococcus pyogenes [2]) [µg/mL],MIC (Pseudomonas aeruginosa [3]) [µg/mL],MIC (Klebsiella aerogenes) [µg/mL],MIC (Staphylococcus aureus [4]) [µg/mL],MIC (Enterobacter cloacae [5]) [µg/mL],MIC (Salmonella typhimurium) [µg/mL],MIC (Enterobacter cloacae [6]) [µg/mL],MIC (Escherichia coli [7]) [µg/mL],MIC (Staphylococcus aureus [8]) [µg/mL],MIC (Streptococcus pyogenes [9]) [µg/mL],MIC (Pseudomonas aeruginosa [10]) [µg/mL],MIC (Klebsiella oxytoca) [µg/mL],MIC (Pseudomonas aeruginosa [11]) [µg/mL],MIC (Streptococcus pyogenes [12]) [µg/mL],MIC (Pseudomonas aeruginosa [13]) [µg/mL],MIC (Staphylococcus aureus [14]) [µg/mL],MIC (Escherichia coli [15]) [µg/mL],MIC (Escherichia coli [16]) [µg/mL],MIC (Escherichia coli [17]) [µg/mL]
CO/N=C(\C(=O)NC1C(=O)N2C(C(=O)[O-])=C(CN(C)c3scc[n+]3C)CSC12)c1csc(N)n1 (stereo not given),0.098,0.007,1.56,0.098,3.12,0.049,0.098,50,0.025,0.391,> 100,50,25,25,0.007,50,1.56,0.098,0.098,0.098
CO/N=C(\C(=O)NC1C(=O)N2C(C(=O)[O-])=C(CN(C)c3sc4c([n+]3C)CCCC4)CSC12)c1csc(N)n1 (stereo not given),0.049,0.007,0.781,0.025,0.781,0.013,0.049,6.25,0.025,0.195,12.5,50,3.12,6.25,0.007,25,0.391,0.049,0.049,0.025
CCO/N=C(\C(=O)NC1C(=O)N2C(C(=O)[O-])=C(CN(C)c3sc(C(=O)OCC)c(C)[n+]3C)CSC12)c1csc(N)n1 (stereo not given),0.098,0.007,1.56,0.049,1.56,0.025,0.049,3.12,0.049,0.781,25,100,6.25,25,0.004,50,1.56,0.098,0.195,0.049
C=CCO/N=C(\C(=O)NC1C(=O)N2C(C(=O)[O-])=C(CN(C)c3sc4c([n+]3C)CCCC4)CSC12)c1csc(N)n1 (stereo not given),0.391,0.004,0.781,0.195,0.781,0.049,0.195,12.5,0.049,0.195,50,50,6.25,6.25,0.004,50,0.391,0.391,0.391,0.025
CCO/N=C(\C(=O)NC1C(=O)N2C(C(=O)[O-])=C(CN(C)c3scc(C)[n+]3C)CSC12)c1csc(N)n1 (stereo not given),0.098,0.013,0.391,0.049,1.56,0.025,0.049,25,0.025,0.391,50,25,6.25,3.12,0.013,12.5,0.781,0.098,0.098,0.025
CCOC(=O)c1sc(N(C)CC2=C(C(=O)[O-])N3C(=O)C(NC(=O)/C(=N\OC)c4csc(N)n4)C3SC2)[n+](C)c1C (stereo not given),0.098,0.007,1.56,0.049,1.56,0.025,0.049,3.12,0.049,0.781,25,100,6.25,25,0.004,50,1.56,0.098,0.195,0.049
CO/N=C(\C(=O)NC1C(=O)N2C(C(=O)[O-])=C(CN(C)c3sc(C(N)=O)c(C)[n+]3C)CSC12)c1csc(N)n1 (stereo not given),0.049,0.007,0.781,0.025,0.781,0.013,0.049,6.25,0.025,0.195,12.5,50,3.12,6.25,0.007,25,0.391,0.049,0.049,0.025
